From US20030114530A1, “Remedies for degenerative arthritis” (priority 2000, published 2003)
“Also recorded” adds a separate entry of the source.

Assays:
model of OA in rabbits = details: Inflamm Res 44, Suppl 2, S117-118 (1995); cited from earlier work
[1] = test system: partial meniscectomy model of osteoarthritis rabbits; assay: partial meniscectomy model of osteoarthritis in rabbits; type: in vivo, rabbit
Method: The effect of the compound on osteoarthritis invented in this study was confirmed by the experiments of a partial meniscectomy model in rabbits.
Female rabbits (Kbs: NZW(Healthy)) were bred for one week before the experiments. The animals were subjected to OA model according to following method.
Each animal was anesthetized with a subcutaneous injection of xylazine (0.05 ml/kg) and an intravenous injection of sodium pentobarbital (20 mg/kg). Right hind knee was shaved, and the width of the knee was measured with the micrometer caliper. It was disinfected with iodine solution. If required local anesthesia was performed with lidocaine hydrochloride.
The skin and articular capsule around right knee were incised at right angle to patellar ligament, the fibular collateral and sesamoid ligament were transected with blades. Adrenaline solution was dropped for the arrest of hemorrhage. The lateral meniscus was partially removed. After washing the operated area with saline solution, the synovium and articular capsule were stitched together. Then muscular coat and skin were put in a suture. […]
After anesthesia with sodium pentobarbital (40 mg/kg), the hind knee was shaved and the width of them was measured with a micrometer caliper. […] After masking, the area of erosion was measured. […]

| SMILES | effect on a model of OA (model of OA in rabbits) | erosion area of femur ([1]; 10, 30, 100 or 300 mg/kg twice a day, oral, 7 days after meniscectomy, FIG. 1) | efficacy in the partial meniscectomy OA model ([1]; rabbits, oral twice a day) |
| --- | --- | --- | --- |
| COc1ccc(S(=O)(=O)N(Cc2cccnc2)[C@@H](C(=O)NO)C(C)C)cc1.Cl [CGS-27023A, 2(R)-[N-(4-methoxyphenylsulfonyl)-N-(3-pyridylmethyl)amino]-3-methylbutanohydroxamic acid hydrochloride] | effected on a model of OA in rabbits | – | – |
| CCOCOC[C@H](C[C@H](C)C(=O)NO)NC(=O)c1ccc(Oc2ccccc2)cc1 [compound of formula (I), N-hydroxy-5-ethoxymethyloxy-2(S)-methyl-4(S)-(4-phenoxybenzoyl)aminopentanamide] | – | decreasing effect | shows an efficiency; also recorded: high-effectivity |
